# Columns and labels:
# [1] = system: normal human epidermal keratinocytes (NHEK); test: Calcium ion permeation through cultured normal human epidermal keratinocyte layer (Transwell, Arsenazo III quantification); assay type: cell-based; settings: 10^-1% test substance; calcium loaded concentration 5 mM; control = test substance concentration 0; FIG. 5/FIG. 6
# Procedure: Frozen normal human epidermal keratinocytes (NHEK) (manufactured by Kurabo Industries Ltd.) were thawed and cultured in a 0.15 mM Ca-containing culture medium (Humedia-KG2; manufactured by Kurabo Industries Ltd.) at 37° C. in 50% carbon dioxide atmosphere. A Transwell (registered trademark) manufactured by Corning Incorporated (diameter 12 mm, polyethylene terephthalate, 0.4 μm pore) was placed on a Millicell (registered trademark) tissue culture plate (manufactured by Millipore), and the above-mentioned culture medium was added in amounts of 1.5 ml to the lower layer and 0.5 ml to the upper layer. […]
# The recovered samples were quantified with quantification reagents {Ca-Arsenazo-III, Mg-Xylidyl blue I (both are manufactured by Fluka)}. […] The net flux (mass transfer per unit time and unit area) was calculated from the quantification results, and Ca and Mg ion permeability coefficients were calculated by the following formula.
# a) 7.76 mg of Arsenazo III was dissolved in 100 μl of 1N NaOH, and the volume of the solution was adjusted to 50 ml with the apical solution for Ca prepared in Table 1 (Ca quantification solution). […]
# c) In order to quantify Ca in a sample, the Ca quantification solution and the sample were each added to the plate in an amount of 50 μl/well to measure ODs (600). […]
# [2] = system: normal human epidermal keratinocytes (NHEK); test: TER (transepithelial electrical resistance) of cultured normal human epidermal keratinocyte layer; assay type: cell-based; settings: 10^-4 v/v % in culture medium; TER measured at addition and 1, 2, 3, 4 days later; FIG. 7
# Procedure: Frozen normal human epidermal keratinocytes (NHEK) (manufactured by Kurabo Industries Ltd.) were thawed and cultured in a 0.15 mM Ca-containing culture medium (Humedia-KG2; manufactured by Kurabo Industries Ltd.) at 37° C. in […] atmosphere. A Transwell manufactured by Corning Incorporated (diameter 12 mm, polyethylene terephthalate, 0.4 μm pore) was placed on a Millicell tissue culture plate (manufactured by Millipore), and the above-mentioned culture medium was added in amounts of 0.5 ml to the upper layer and 1.5 ml to the lower layer. Then, the normal human epidermal keratinocytes (NHEK) were inoculated at 1×10^5/cm^2 and cultured for additional 72 hours. […] Thereafter, the medium was exchanged for a culture medium containing 10^−4 v/v % α,ε-bis(γ-N-lauroylglutamyl)lysine (Pellicer L-30 (registered trademark) (hereinafter, referred to as Pellicer); manufactured by Asahi Kasei Corporation), and TERs were measured. The culture was further continued, and one, two, three, and four days later, TERs were measured.
# Frozen normal human epidermal keratinocytes (NHEK) (manufactured by Kurabo Industries Ltd.) were thawed and cultured in a 0.15 mM Ca-containing culture medium (Humedia-KG2; manufactured by Kurabo Industries Ltd.) at 37° C. in 50% carbon dioxide atmosphere. […] The culture was further continued, and one, two, three, and four days later, TERs were measured.
Compound,inhibition of the transference of a calcium ion (calcium ion permeation ratio vs control) [1],TER (resistance value) compared with the control [2]
"C[N+](C)(C)C[C@H](O)CC(=O)[O-] [L-carnitine, reference compound]",had ability to inhibit the transference of a calcium ion,
"CCCCCCCCCCCC(=O)N[C@@H](CCC(=O)NCCCC[C@H](NC(=O)CC[C@H](NC(=O)CCCCCCCCCCC)C(=O)O)C(=O)O)C(=O)O [Pellicer, α,ε-bis(γ-N-lauroylglutamyl)lysine]",,increased resistance value compared with the control
"N[C@@H](CCCCNC(=O)CC[C@H](N)C(=O)O)C(=O)O [ε,γ-glutamyl lysine]",had ability to inhibit the transference of the calcium ion,

# Reference: patent US8535904B2, “Method of enhancing skin barrier function” (Pola Chemical Industries Inc., priority 2006, dated 2013)
